# The source made the active and inactive calls. No rule for the calls is given here.
# Target: Ras-related protein Rab7, wildtype (dog)
# Test: Rab7 GTP binding inhibitors, further analogs, SAR follow-up, biochemical, additional analogs, wildtype, multiplex bead flow cytometry (AID 2036)
# Conditions: not given
row,EC50,Compound
1,inactive,O=C1C(c2c(O)[nH]c3ccccc23)=Nc2ccccc21
2,inactive,O=Nc1c(-c2c(O)[nH]c3ccccc23)[nH]c2ccccc12
3,inactive,O=C1C(c2c(O)[nH]c3c(Cl)cccc23)=Nc2ccccc21
4,inactive,O=Nc1c(-c2c(O)[nH]c3c(F)cccc23)[nH]c2ccccc12
5,inactive,O=C1C(c2c(O)[nH]c3ccc(Br)cc23)=Nc2ccccc21
6,inactive,O=Nc1c(-c2c(O)[nH]c3c(Cl)cccc23)[nH]c2ccccc12
7,inactive,O=C1C(c2c(O)[nH]c3c(F)cccc23)=Nc2ccccc21
8,inactive,O=C1C(c2c(O)[nH]c3c(Br)cccc23)=Nc2ccccc21
9,inactive,O=Nc1c(-c2c(O)[nH]c3ccc(Br)cc23)[nH]c2ccccc12
10,inactive,O=Nc1c(-c2c(O)[nH]c3c(Br)cccc23)[nH]c2ccccc12
11,inactive,O=C1N=c2ccccc2=C1c1[nH]c(=S)[nH]c1O
12,inactive,O=C1N=c2ccccc2=C1c1[nH]c(=O)[nH]c1O

# Same assay, conditions: measured here: Ki from EC50
row,Ki [µM],Compound
1,2.7,CSc1ccc(/C=C2/C(C)=C(CC(=O)O)c3cc(F)ccc32)cc1
2,1.56,O=C1C(c2c(O)[nH]c3c(F)cccc23)=Nc2ccccc21
3,0.31,CC(C)Cc1ccc([C@H](C)C(=O)O)cc1
4,0.54,COc1ccc(S(=O)(=O)n2c(N)c(C#N)c(-c3cncc(Br)c3)c2C(=O)c2ccccc2)cc1
5,2.17,COc1cc(-c2c(C#N)c(N)n(S(=O)(=O)c3c(C(C)C)cc(C(C)C)cc3C(C)C)c2C(=O)c2ccccc2)cc(OC)c1OC
6,0.87,O=C1N=c2ccccc2=C1c1[nH]c(=S)[nH]c1O

# Reference: PubChem BioAssay AID2036 (NMMLSC, 2009)
